US20120115867A1, “NEW CLASS OF HISTONE DEACETYLASE INHIBITORS” (DAC S.R.L., priority 2004, published 2012)

System: HDAC (nuclear fraction of Hela cells)
Experiment: Assay of enzyme inhibition of HDAC (BIOMOL Kit, fluorescence)
Assay type: biochemical
Conditions: 30× diluted nuclear fraction of Hela cells; substrate 200 μM; 15 min at RT
Procedure: The in-vitro activity of HDAC inhibitors was assayed by means of a biochemical assay using a BIOMOL Kit, according to the instructions from the manufacturer (Biomolecular Research Laborator). Briefly, 15 μl of 30× diluted nuclear fraction of Hela cells, was diluted to 50 μl with the assay buffer containing the HDAC inhibitor and the substrate (lysine with acetylated amino on the side chain) at a concentration of 200 μM. The samples were incubated for 15 min at RT and then exposed to a developer (10 min at RT). In this last step a fluorophore was produced, whose fluorescence was measured using an excitation wavelength of 355 nm and an emission at 460 nm. The IC50 is calculated using GraphPad Software.
The reference HDAC inhibitors marked with (*) are those disclosed in the patent application WO2006/037761.

IC50 | Compound
1.37 µM | O=C(/C=C/c1cccc(/C=C/C(=O)c2cccc(F)c2)c1)NO [Ref (*)MC1653, reference compound]
0.389 µM | O=C(/C=C/c1cccc(/C=C/C(=O)c2ccccc2Cl)c1)NO [Ref (*)MC1670, reference compound]
1.46 µM | O=C(/C=C/c1cccc(/C=C/C(=O)c2cccc(Cl)c2)c1)NO [Ref (*)MC1672, reference compound]
2.84 µM | O=C(/C=C/c1ccc(/C=C/C(=O)c2ccc(N3CCOCC3)cc2)c(F)c1)NO [Ref (*) 29, reference compound]
0.029 µM | CN1CCN(c2cc(Cl)cc(C(=O)/C=C/c3cccc(/C=C/C(=O)NO)n3)c2)CC1 [Example 11, (E)-3-(6-{(E)-3-[3-Chloro-5-(4-methyl-piperazin-1-yl)-phenyl]-3-oxo-propenyl}-pyridin-2-yl)-N-hydroxy-acrylamide]
0.13 µM | O=C(/C=C/c1cccc(/C=C/C(=O)c2ccccc2F)c1)NO [Ref (*)MC1661, reference compound]
1.36 µM | O=C(/C=C/c1ccc(/C=C/C(=O)c2ccc(N3CCOCC3)cc2)cc1)NO [Ref (*) 41, reference compound]
0.0733 µM | COc1cc(C(=O)/C=C/c2ccc(/C=C/C(=O)NO)cc2)ccc1CN1CCOCC1 [Ref (*) 48, reference compound]
